Experimental data from ChEMBL document CHEMBL1128862, “Tricyclic cephems as inhibitors of human leukocyte elastase. thieno[3,4-c]cepham sulfones and pyrrolo[3,4-c]cepham sulfones” (Bioorg Med Chem Lett, 1995).

How the values were obtained:
[1] = Hydrolytic stability at 37 degrees Centigrade in 50 mM phosphate buffer (2 % v/v MeCN as solubilising vehicle) at pH 7.4; assay type: physicochemical
[2] = target: T1, Neutrophil elastase (Homo sapiens) (UniProt P08246); assay: Inhibitory activity against human leukocyte elastase (HLE) expressed as second order inhibition rate constant
T1 sequence (whole entry): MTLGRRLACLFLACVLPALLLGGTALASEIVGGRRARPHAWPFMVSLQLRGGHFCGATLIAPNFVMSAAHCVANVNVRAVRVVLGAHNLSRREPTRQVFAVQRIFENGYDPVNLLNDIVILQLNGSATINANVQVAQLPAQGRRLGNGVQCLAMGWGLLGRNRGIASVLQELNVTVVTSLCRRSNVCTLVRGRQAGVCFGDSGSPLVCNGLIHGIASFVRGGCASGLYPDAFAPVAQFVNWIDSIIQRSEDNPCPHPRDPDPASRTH

[3] = Hydrolytic stability at 37 degrees Celsius in 50 mM phosphate buffer (20 % v/v MeCN as solubilising vehicle) at pH 7.4; assay type: physicochemical

CO[C@H]1C(=O)N2c3c(c[nH]c3-c3ccccc3)CS(=O)(=O)[C@H]12
half-life [1]: 23.8 days | k on [2]: 2500 M⁻¹ s⁻¹

CO[C@H]1C(=O)N2c3c(csc3C(C)(C)C)CS(=O)(=O)[C@H]12
half-life [1]: 9.17 days | k on [2]: 80 M⁻¹ s⁻¹

CO[C@H]1C(=O)N2c3c(cn(C(=O)C(C)(C)C)c3-c3ccccc3)CS(=O)(=O)[C@H]12
half-life [1]: 33.3 days | k on [2]: 2100 M⁻¹ s⁻¹

CO[C@H]1C(=O)N2c3c(c[nH]c3C(C)(C)C)CS(=O)(=O)[C@H]12
half-life [1]: 21.2 days | k on [2]: 1300 M⁻¹ s⁻¹

CO[C@H]1C(=O)N2c3c(cn(-c4ccc([N+](=O)[O-])cc4)c3-c3ccccc3)CS(=O)(=O)[C@H]12
half-life [3]: > 125 days | k on [2]: 11000 M⁻¹ s⁻¹

CO[C@H]1C(=O)N2c3c(csc3-c3ccccc3)CS(=O)(=O)[C@H]12
half-life [1]: 1.42 days | k on [2]: 270 M⁻¹ s⁻¹
